Test results published in ChEMBL document CHEMBL1201862, “PubChem BioAssay data set” (2004).
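How tested: cells in 96-well plates exposed to compound for 48 hours at five concentrations. At the GI50, growth is halved.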 The source made the active and inactive calls. No stated cut-off is given here; in the data, active = GI50 up to about 1.1 µM and inactive = higher.

Key:
Assay in all cases: DTP human tumour cell line panel, 48 h
786-0 = tested on: 786-0
SR = tested on: SR
MOLT-4 = tested on: MOLT-4
A498 = tested on: A498
NCI-H226 = tested on: NCI-H226
RPMI-8226 = tested on: RPMI-8226
M14 = tested on: M14
DU-145 = tested on: DU-145
SNB-19 = tested on: SNB-19
EKVX = tested on: EKVX
SK-MEL-5 = tested on: SK-MEL-5
SK-MEL-2 = tested on: SK-MEL-2
MDA-MB-231 = tested on: MDA-MB-231
MDA-MB-435 = tested on: MDA-MB-435
LOX IMVI = tested on: LOX IMVI
NCI-H23 = tested on: NCI-H23
NCI/ADR-RES = tested on: NCI/ADR-RES
CAKI-1 = tested on: CAKI-1
COLO 205 = tested on: COLO 205
SNB-75 = tested on: SNB-75

Structure (SMILES)	GI50 (786-0)	GI50 (SR)	GI50 (MOLT-4)	GI50 (A498)	GI50 (NCI-H226)	GI50 (RPMI-8226)	GI50 (M14)	GI50 (DU-145)	GI50 (SNB-19)	GI50 (EKVX)	GI50 (SK-MEL-5)	GI50 (SK-MEL-2)	GI50 (MDA-MB-231)	GI50 (MDA-MB-435)	GI50 (LOX IMVI)	GI50 (NCI-H23)	GI50 (NCI/ADR-RES)	GI50 (CAKI-1)	GI50 (COLO 205)	GI50 (SNB-75)
Cc1sc2nc(-c3cccc([N+](=O)[O-])c3)c(/C=N/N=C(N)N)n2c1C	1.83 µM (inactive)	1.75 µM (inactive)	1.9 µM (inactive)	1.55 µM (inactive)	1.82 µM (inactive)	1.96 µM (inactive)	1.6 µM (inactive)	1.86 µM (inactive)	1.76 µM (inactive)	1.67 µM (inactive)	1.67 µM (inactive)	1.71 µM (inactive)	1.75 µM (inactive)	1.79 µM (inactive)	1.77 µM (inactive)	1.82 µM (inactive)	8.13 µM (inactive)	1.82 µM (inactive)	1.83 µM (inactive)	
CO/C(C)=N/CCC1=CCCCC1	> 100 µM (inactive)	0.104 µM (active)	> 100 µM (inactive)	> 100 µM (inactive)		> 100 µM (inactive)	> 100 µM (inactive)	> 100 µM (inactive)	> 100 µM (inactive)	> 100 µM (inactive)	> 100 µM (inactive)	> 100 µM (inactive)	> 100 µM (inactive)	> 100 µM (inactive)		> 100 µM (inactive)	> 100 µM (inactive)	> 100 µM (inactive)	> 100 µM (inactive)	> 100 µM (inactive)
CNC(=O)OCC1C2=C(C(=O)C(C)=C(N)C2=O)N2CC3C(N3C)C12OC (stereo unspecified)	4.02 µM (inactive)	0.867 µM (active)	3.29 µM (inactive)	15.3 µM (inactive)	32.1 µM (inactive)	23.8 µM (inactive)	7.24 µM (inactive)	2.47 µM (inactive)	3.3 µM (inactive)	> 100 µM (inactive)	11.5 µM (inactive)	26.1 µM (inactive)	> 100 µM (inactive)	38.1 µM (inactive)	9.91 µM (inactive)	1.53 µM (inactive)	32.5 µM (inactive)	3.16 µM (inactive)	13.6 µM (inactive)	
COc1ccc2c(c1)/C(=C\c1c(Cl)[nH]c3ccccc13)C(=O)N2	4.49 µM (inactive)	2.03 µM (inactive)	5.33 µM (inactive)	8 µM (inactive)	16.2 µM (inactive)	3.61 µM (inactive)	4.08 µM (inactive)	19.3 µM (inactive)	6.62 µM (inactive)	3.3 µM (inactive)	3.6 µM (inactive)	4.21 µM (inactive)	4.47 µM (inactive)	1.91 µM (inactive)	5.09 µM (inactive)	11.4 µM (inactive)	2.81 µM (inactive)	3.86 µM (inactive)	2.27 µM (inactive)	
O=C(O)c1cc2cc(OCc3ccccc3)ccc2[nH]1	> 100 µM (inactive)	> 100 µM (inactive)	> 100 µM (inactive)	87.5 µM (inactive)	23.4 µM (inactive)	> 100 µM (inactive)	> 100 µM (inactive)	> 100 µM (inactive)	73.6 µM (inactive)	> 100 µM (inactive)	> 100 µM (inactive)	61.7 µM (inactive)	> 100 µM (inactive)	> 100 µM (inactive)	> 100 µM (inactive)	> 100 µM (inactive)	> 100 µM (inactive)	> 100 µM (inactive)	> 100 µM (inactive)	
Cc1ccc2nc(-c3ccc(C(C)(C)C)cc3)oc(=O)c2c1	25.1 µM (inactive)	21.2 µM (inactive)	17 µM (inactive)	24.8 µM (inactive)		21 µM (inactive)	23.8 µM (inactive)	26.7 µM (inactive)	25.2 µM (inactive)	20 µM (inactive)	14.3 µM (inactive)	26.7 µM (inactive)	20.6 µM (inactive)	14.7 µM (inactive)	16.4 µM (inactive)	19.6 µM (inactive)	17.7 µM (inactive)	19.4 µM (inactive)	18.2 µM (inactive)	14.2 µM (inactive)
Cc1occc1/C(S)=N\c1ccc(Cl)c(COC(C)(C)C)c1	16.3 µM (inactive)	17.6 µM (inactive)	14.4 µM (inactive)	17.8 µM (inactive)	18.1 µM (inactive)	14.2 µM (inactive)	19.1 µM (inactive)	20.1 µM (inactive)	20.9 µM (inactive)	16.3 µM (inactive)	16.2 µM (inactive)	15.8 µM (inactive)	17.1 µM (inactive)	16.7 µM (inactive)	17.3 µM (inactive)	16.4 µM (inactive)	16.1 µM (inactive)	17.8 µM (inactive)	15.7 µM (inactive)	
CCOC(=O)C(C)(C)C(O)C(C)C (stereo unspecified)	> 100 µM (inactive)	> 100 µM (inactive)	> 100 µM (inactive)	> 100 µM (inactive)		> 100 µM (inactive)	> 100 µM (inactive)	> 100 µM (inactive)	> 100 µM (inactive)	> 100 µM (inactive)	> 100 µM (inactive)	> 100 µM (inactive)	> 100 µM (inactive)	> 100 µM (inactive)	> 100 µM (inactive)	> 100 µM (inactive)	> 100 µM (inactive)	> 100 µM (inactive)	> 100 µM (inactive)	> 100 µM (inactive)
CO/C=C(/C(=O)OC)c1ccccc1[C@H]1C[C@@H]1c1ccc(OC)cc1	34 µM (inactive)	8.73 µM (inactive)	17.1 µM (inactive)	28.1 µM (inactive)	30.2 µM (inactive)	18.2 µM (inactive)	18.3 µM (inactive)	32.1 µM (inactive)	53.7 µM (inactive)	14.3 µM (inactive)	12.4 µM (inactive)	13.2 µM (inactive)	25.5 µM (inactive)	7.76 µM (inactive)		27.9 µM (inactive)	20.2 µM (inactive)	17.9 µM (inactive)	13.1 µM (inactive)	
S=C1N(c2ccc(Cl)cc2)C2=C(/N=N/c3ccccc3)C(=Nc3ccccc3S2)N1c1ccccn1	14.9 µM (inactive)	11.2 µM (inactive)	13.9 µM (inactive)	< 0.01 µM (active)		17.7 µM (inactive)	13.7 µM (inactive)	14.7 µM (inactive)	13.9 µM (inactive)	12.2 µM (inactive)	11.4 µM (inactive)		12.8 µM (inactive)	13.5 µM (inactive)	10.4 µM (inactive)	15 µM (inactive)	15.5 µM (inactive)	13.8 µM (inactive)	12.6 µM (inactive)	19 µM (inactive)
CCOC(=O)c1cc(NC(=O)c2ccccc2)c(=O)n2c(cc3c(Cl)cccc32)c1O	> 100 µM (inactive)	> 100 µM (inactive)	> 100 µM (inactive)	> 100 µM (inactive)	> 100 µM (inactive)	80.4 µM (inactive)	> 100 µM (inactive)	> 100 µM (inactive)	> 100 µM (inactive)	> 100 µM (inactive)	> 100 µM (inactive)	> 100 µM (inactive)	> 100 µM (inactive)	> 100 µM (inactive)	> 100 µM (inactive)	> 100 µM (inactive)	> 100 µM (inactive)	> 100 µM (inactive)	> 100 µM (inactive)	
